Measured values as given in PubChem BioAssay AID489032 (Sanford-Burnham Center for Chemical Genomics, 2010).
The source made the active and inactive calls. No rule for the calls is given here.

system: UPR adaptive arm reporter cells, luciferase luminescence; experiment: activators of adaptive UPR signalling, dose response, cell-based, luciferase luminescence (AID 489032)

SMILES | EC50
O=c1[nH]c(CSc2ncnc3sc(-c4ccccc4)cc23)nc2ccccc12 | > 80 µM (inactive)
Cc1cc(C)cc(NC(=O)/C(C#N)=C/c2cn(CC(=O)NCc3ccco3)c3ccccc23)c1 | 9.17 µM
CCOC(=O)c1[nH]c2ccc(Cl)cc2c1NC(=O)/C=C/c1ccc2c(c1)OCO2 | 74.2 µM (inactive)
OCCCn1c(C2CCCN2c2nc(-c3ccc(F)cc3)cs2)nc2cc(Cl)c(N3CCCCC3)cc21 (stereo not drawn) | > 80 µM (inactive)
COc1ccc(Nc2nc(N)c([N+](=O)[O-])c(NC3CCCCC3)n2)cc1 | > 80 µM (inactive)
CCOc1ccccc1N=Cc1c(O)c2ccccc2oc1=O | 11.6 µM
CN(C)S(=O)(=O)c1ccc(N2CCCC2)c(C(=O)Nc2nc3ccccc3s2)c1 | 15.7 µM
COc1cccc(-c2sc3ccccc3c2-c2ccc(OCCN(C)C)cc2)c1 | > 80 µM (inactive)
Cn1nnnc1Sc1ncnc2scc(-c3ccc(Cl)cc3)c12 | > 80 µM (inactive)
Cn1c(/C=C/c2ccc(Cl)cc2Cl)c([N+](=O)[O-])c(=O)n(C)c1=O | > 80 µM (inactive)
CCN(CC)c1ccc(/C=C/[N+](=O)[O-])cc1 | 19.4 µM
Cc1ccc2c(c1)C(=O)C(=O)N2Cc1ccc(C(F)(F)F)cc1 | 27.5 µM (inactive)
O=C(Nc1ccc(O)c2c(=O)cc(-c3cccc(Cl)c3)oc12)c1cccc(Cl)c1 | 20.9 µM (inactive)
